Data on 19 molecules can be found in article PMC8037809, “Biomimetic Chromatographic Studies Combined with the Computational Approach to Investigate the Ability of Triterpenoid Saponins of Plant Origin to Cross the Blood–Brain Barrier” (International Journal of Molecular Sciences, 2021).

Read-outs that look alike come from different tables or passages of the source.

On the set-up of data set [1]: method as in earlier work. To be noted: experimentally obtained; QSAR training and test sets; cited from earlier work.
Data set [2] in a line: biomimetic chromatography (BMC, IAM, CHOL) with the QSAR equation, compared with computational logBB. The following applies: for ability to cross the BBB (conclusion): from biomimetic and computational studies. An excerpt:
To calculate the logBB values for the tested saponins, the QSAR model previously obtained was used. In this QSAR predictive model the BBB penetration potential was correlated with the lipophilic properties (logPow), excess molar refraction (E), the difference between the logarithms of n-octanol/water and cyclohexane/water partition coefficients values (ΔlogP) being the hydrogen-bonding potential:logBB = −0.114 − 0.098 ΔlogP + 0.278 logPow + 0.218E(2)
Chromatographic biomimetic methods, including IAM, BMC, and CHOL, were used to determine BBB permeability of the tested triterpenoid saponins. For this purpose, the values of logkw, being the logarithm of retention factor extrapolated to pure water, were determined. These values were compared with the logBB values calculated in silico and those obtained using the QSAR model (Equation (2)). Logkw is recognized to be an alternative to the logPow lipophilicity descriptor [96]. On the other hand, lipophilicity is one of the most important features influencing the ability of substances to cross biological barriers.
Moreover, for the micellar biomimetic studies (BMC), Foley’s equation [97] (Equation (3)) was used to calculate important physicochemical parameters, i.e., the analyte–micelle association constant (KMA) and the partition coefficient of the analyte between the stationary phase and water (Psw). These parameters can describe possible interactions in the micellar system since the Brij35 micelle can be treated as a simple model of a biological barrier. (3) 1/k= KMA/PSWΦCM+ 1/PSWΦ where k is the retention factor, CM is the concentration of micelles, KMA is the analyte–micelle association constant, PSW is the partition coefficient of the analyte between the stationary phase and water, and Φ is the volume ratio of the stationary phase to the mobile phase volume.
As mentioned above the logkw parameter, obtained from the biomimetic chromatographic systems, is recognized to be an alternative to the logarithm of the n-octanol/water partition coefficient (logPow) lipophilicity descriptor. Therefore, logkw-BMC, logkw-IAM, and logkw-CHOL values were used for the calculation of logBB based on the QSAR equation (Equation (2)), instead of the logPow parameter. The values of logBB-BMC, logBB-IAM, and logBB-CHOL were thus calculated. In Figure 2 the above-mentioned logBB values and logBB in silico calculated using the ACD/Percepta software, as well as those of logKMA that can be treated as an equivalent to the logBB parameter, are presented.
The solutions of analytical standards of the studied triterpenoid saponins were prepared in methanol (Merck, Darmstadt, Germany; p.a.) at a concentration of 1 mg/mL. […] In the research each system was optimized previously. In the IAM and CHOL studies, acetonitrile-phosphate buffer solutions (0.3; 0.4; 0.5; 0.6 v/v; pH 7.4) were used as mobile phases. In the case of BMC analysis, the buffered solution of Brij35 (0.075; 0.1; 0.125; 0.15 mol/dm^3; pH 7.4) was used as the mobile phase with the addition of isopropanol as an organic modifier (7% v/v). The buffer was prepared from the solutions of Na2HPO4 and citric acid (0.01 mol/dm^3) and the pH 7.4 value was fixed before the preparation of the mobile phases.
The following stationary phases were employed: IAM.PC.DD2 100 × 4.6 mm i.d., 10 µm (Regis Chemicals Company, Morton Grove, IL, USA); Cosmosil Cholester, 75 × 2 mm i.d., 2.5 µm (Genore, Warsaw, Poland); Purosphere RP-18e (ODS), 125 × 4 mm i.d., 5 µm (Merck, Darmstadt, Germany). The flow rates were established as follows: 1.3 mL/min (IAM), 0.4 mL/min (CHOL), and 1 mL/min (BMC). The tested saponins were detected with UV light at 254 nm. All measurements were made at 25 °C. The dead time values were measured from the non-retained compound (citric acid) peaks. All reported logkw values are the average of at least three independent measurements.

Data set [3] deals with memory deficits and anxiety induced by Aβ25-35. The following applies: rats, Aβ25-35 into the lateral ventricles; cited from earlier work.
Details of data set [4]: method as in doi:10.1556/1326.2017.00147. To be noted: rat, intragastric administration of the extract, postmortem; cited from earlier work.
The test system of data set [5] is hippocampal CA1 region pyramidal neurons. More on the design: method as in PMID 19433075. To be noted: ischemia/reperfusion; cited from earlier work.
Data set [6] deals with ethanol-induced memory impairment. Further details: method as in PMID 18521966. To be noted: mice; cited from earlier work.

Take `CN1CC[C@]23c4c5ccc(O)c4O[C@H]2[C@@H](O)C=C[C@H]3[C@H]1C5.Cl` [52-26-6]: the logBB result in data set [1] is “–0.16”.

On to `C=CCC1(C(C)CCC)C(=O)NC(=O)NC1=O` (stereo not shown) [76-73-3], for which the logBB in data set [1] is reported as 0.2.

Consider `CNC(C)CC1CCCCC1` (stereo not shown) [101-40-6], for which the logBB in data set [1] is 1.08.

`CN1C(=O)CN=C(c2ccccc2)c2cc(Cl)ccc21` [439-14-5]: the logBB in data set [1] is 0.56.

Consider `Cc1cc(Cl)ccc1NC1=NCCN1` [4201-26-7], for which, in data set [1], the logBB is on record as 0.14.

Turning to `Clc1ccc(NC2=NCCN2)c(Cl)c1` [23830-88-8], the logBB in data set [1] is on record as 0.16.

Turning to `CC(C)NCC(O)COc1ccc(CC(N)=O)cc1` (stereo not shown) [29122-68-7], the logBB result in data set [1] was “–1”.

For `Cc1ccccc1NC1=NCCN1` [36318-56-6], the logBB in data set [1] is 0.04.

As to `Brc1cc(Br)c(NC2=NCCN2)c(Br)c1` [38941-33-2], the logBB in data set [1] is 0.58.

With `CN(C)C(=O)C(CCN1CCC(O)(c2ccc(Cl)cc2)CC1)(c1ccccc1)c1ccccc1` [53179-11-6], the logBB in data set [1] is 0.77.

Take `CC(C)NCC(O)COc1ccc(CCOCC2CC2)cc1` (stereo not shown) [63659-18-7]: the logBB in data set [1] is reported as 0.39.

`COc1ccc2nc([S+]([O-])Cc3ncc(C)c(OC)c3C)[nH]c2c1` (stereo not shown) [73590-58-6]: in data set [1], the logBB result is “–0.82”.

Turning to `Cc1ccc(Cc2cnc(NCCSCc3ccc(CN(C)C)o3)[nH]c2=O)cn1` [83903-06-4], the logBB result in data set [1] is given as “–1.06”.

As to `O=C(CCC1CCN(Cc2ccccc2)CC1)c1ccc2c(c1)NCCCC2` [142852-50-4], the logBB in data set [1] is 1.14.

Turning to `Cc1c(O)cccc1C(=O)N[C@@H](CSc1ccccc1)[C@H](O)CN1C[C@H]2CCCC[C@H]2C[C@H]1C(=O)NC(C)(C)C` [159989-64-7], the logBB result in data set [1] is on record as “–0.93”.

Regarding `CC1(C)CCC2(C(=O)OC3OC(COC4OC(CO)C(O)C(O)C4O)C(O)C(O)C3O)CCC3(C)C(=CCC4C5(C)CCC(OC6OCC(O)C(O)C6O)C(C)(CO)C5CCC43C)C2C1` (stereo not shown) [Akebia saponin D], in data set [2], the “ability to cross the BBB (conclusion)” value is on record as “can penetrate the BBB”. For the same molecule, in data set [3], the “effect on memory deficits and anxiety symptoms” value is “could significantly ameliorate the memory deficits and anxiety symptoms”.

Regarding `CC1(C)CC[C@]2(C(=O)O)CC[C@]3(C)C(=CC[C@@H]4[C@@]5(C)C[C@@H](O)[C@H](O)C(C)(C)[C@@H]5CC[C@]43C)[C@@H]2[C@@H]1O` [Arjunic acid], in data set [2], the “ability to cross the BBB (conclusion)” value is reported as “can penetrate the BBB”. The “presence in brain tissues” value in data set [4] was “present in rat brain tissues”.

As for `CC(C)=C[C@H]1C[C@](C)(O)[C@@H]2[C@H]3CC[C@@H]4[C@@]5(C)CC[C@H](O[C@@H]6O[C@H](CO)[C@@H](O)[C@H](O[C@@H]7O[C@H](CO)[C@@H](O)[C@H](O)[C@H]7O)[C@H]6O[C@@H]6O[C@@H](CO)[C@H](O)[C@H]6O)C(C)(C)[C@@H]5CC[C@@]4(C)[C@@]34CO[C@@]2(C4)O1` [Bacoside A], in data set [2], the “ability to cross the BBB (conclusion)” value is recorded as “can penetrate the BBB”.

With `C[C@@H]1O[C@@H](O[C@H]2[C@H](OC(=O)[C@]34CCC(C)(C)C[C@H]3C3=CC[C@@H]5[C@@]6(C)C[C@H](O)[C@H](O[C@@H]7O[C@H](CO)[C@@H](O)[C@H](O)[C@H]7O)C(CO)(CO)[C@@H]6CC[C@@]5(C)[C@]3(C)C[C@H]4O)OC[C@H](O)[C@@H]2O)[C@H](O)[C@H](O)[C@H]1O[C@@H]1OC[C@@H](O)[C@H](O[C@@H]2OC[C@](O)(CO)[C@H]2O)[C@H]1O` [Platycodin D], the “protection from ischemic damage” value in data set [5] is listed as “protects the hippocampal CA1 region pyramidal neurons from an ischemic damage”. Also, the “average logBB” value in data set [2] (average of all obtained logBB values (biomimetic and computational)) is −1.681. The “ability to cross the BBB (conclusion)” value in data set [2] is “does not cross this barrier”. The same molecule had a logBB in data set [2] (span of the obtained values over the methods) of −2 to −1.29. For the same molecule, in data set [6], the “effect on ethanol-induced memory impairment” value was “could improve ethanol-induced memory impairment”.
